In patent US11649236B2, “Polycyclic carbamoylpyridone derivative” (Shionogi & Co., Ltd., priority 2018, dated 2023):
pEC50: −log10 of the molar value.

Tests used:
[1] = test system: HIV mutant strain 1 (E138K/G140S/Q148H/N155H); experiment: Resistance evaluation test (HeLa-CD4 reporter), mutant strain 1; format: cell-based; conditions: FC=EC50 of mutant strain/EC50 of wild strain, HeLa-CD4 cells
Description: (§1) Serial dilutions of a test sample were prepared in a96-well microplate (50 μL/well). 2.5×10^5 cells/mL of a HeLa-CD4 cell suspension was dispensed at 100 μL/well to the plate containing the test sample. Then, an HIV virus solution (wild strain and mutant strain) was dispensed at 50 μL/well. The plate was mixed with a plate mixer and cultured for 3 days in a CO2 incubator. The culture supernatant in each well was removed by suction. A cell lysis buffer in a reporter assay kit was dispensed at 100 μL/well, and the plate was frozen in a freezer (−80° C.). The plate frozen in a freezer was thawed at room temperature, then mixed with a plate mixer, and centrifuged at 1,200 rpm for 5 minutes. The supernatant of each well was dispensed at 20 μL/well to a 96-well microplate (BLACK). A chemiluminescent reagent in the reporter assay kit was dispensed at 100 μL/well and reacted at room temperature for approximately 1 hour. Then, luminescence intensity was measured using MicroBeta TRILUX. […] FC=EC50 of mutant strain/EC50 of wild strain (Results) FC for the mutant strain 1 (E138K/G140S/Q148H/N155H) and FC for the mutant strain 2 (E92Q/E138T/G140S/Q148H) are shown in the table.

HIV = experiment: Anti-HIV activity (MT-4 cells, MTT); format: cell-based; conditions: Human immunodeficiency virus 1, MT4, 96 h, cultured 4 days
Description: Serial dilutions of a test sample were prepared in a 96-well microplate (50 μL/well). 2.5×10^5 cells/mL of a MT-4 cell suspension was dispensed at 100 μL/well to the plate containing the test sample. Then, an HIV virus solution was dispensed at 50 μL/well. The plate was mixed with a plate mixer and cultured for 4 days in a CO2 incubator. An MTT (3-(4,5-dimethylthiazol-2-yl)-2,5-diphenyltetrazolium bromide) solution was dispensed at 30 μL/well. The plate was reacted for 1 hour in a CO2 incubator. 150 μL of the supernatant was removed from each well so as not to take up the cells. 150 μL of a cell lysis solution was added to each well and well mixed with a plate mixer until the cells were completely lysed. The absorbance of the mixed plate was measured at two wavelengths of 560 nm and 690 nm with a microplate reader.

[2] = test system: HIV mutant strain 2 (E92Q/E138T/G140S/Q148H); experiment: Resistance evaluation test (HeLa-CD4 reporter), mutant strain 2; format: cell-based; conditions: FC=EC50 of mutant strain/EC50 of wild strain, HeLa-CD4 cells
Description: as §1

Metabolic stability test = format: in vitro ADME, human; parameters: key: % remaining vs amount at 0 min (=100%)
Description: Commercially available pooled human liver microsomes were reacted with the compound of the present invention for a certain time. A residual rate was calculated by the comparison between the reacted sample and an unreacted sample to evaluate the degree at which the compound of the present invention is metabolized in the liver. A reaction was performed (oxidative reaction) at 37° C. for 0 minutes or 30 minutes in the presence of 1 mmol/L NADPH in 0.2 mL of a buffer (50 mmol/L Tris-HCl pH 7.4, 150 mmol/L potassium chloride, 10 mmol/L magnesium chloride) containing 0.5 mg protein/mL of human liver microsomes. After the reaction, 50 μL of the reaction solution was added to 100 μL of a solution of methanol/acetonitrile=1/1 (v/v) and mixed, and the mixture was centrifuged at 3000 rpm for 15 minutes. The compound of the present invention in the centrifugation supernatant was quantified by LC/MS/MS or solid-phase extraction (SPE)/MS. The amount of the compound of the present invention remaining after the reaction was calculated with the amount of the compound at 0 minutes of the reaction defined as 100%.

[3] = compound 0.5 μmol/L, human liver microsomes 0.5 mg protein/mL, NADPH, 37° C., 30 minutes, amount at 0 minutes defined as 100%
[4] = human, 30 min, 0.5 μmol/L, pH 7.4

Row | pEC50 (HIV) | SMILES | FC mutant strain 1 [1] | FC mutant strain 2 [2] | residual rate (Metabolic stability test; [3]) | residual rate (Metabolic stability test; [4])
1 | 8.80 | CCN1C(=O)c2c(O)c(=O)c(C(=O)NCc3ccc(F)cc3F)cn2N2CCN(CC3CC3)C[C@@H]12 [II-101] | – | – | – | –
2 | 8.31 | C[C@H]1C[C@H]2N(C)C(=O)c3c(O)c(=O)c(C(=O)NCc4ccc(Cl)cc4F)cn3N2C1 [II-065] | – | – | – | –
3 | 9.21 | O=C(NCc1ccc(F)cc1F)c1cn2c(c(O)c1=O)C(=O)N(C[C@@H]1CCCO1)[C@@H]1CCCCN12 [Compound I-023] | – | – | – | –
4 | 9.24 | COC[C@@H](C)N1C(=O)c2c(O)c(=O)c(C(=O)NCc3cccc(Cl)c3F)cn2N2CCCC[C@@H]12 [II-006] | – | – | – | –
5 | 8.96 | CCCN1C(=O)c2c(O)c(=O)c(C(=O)NCc3ccc(F)cc3F)cn2N2CCCC[C@@H]12 [Compound I-021] | – | – | – | –
6 | 9.19 | CCN1C(=O)c2c(O)c(=O)c(C(=O)NCc3ccc(F)cc3F)cn2N2C[C@H]3C[C@H](C3)[C@@H]12 [II-037] | – | – | – | –
7 | 8.21 | CCN1C(=O)c2c(O)c(=O)c(C(=O)NC3(c4cccc(Cl)c4F)CC3)cn2N2CCCC[C@@H]12 [II-003] | – | – | – | –
8 | 9.24 | CCN1C(=O)c2c(O)c(=O)c(C(=O)NCc3c(F)ccc(F)c3F)cn2N2CCCC[C@@H]12 [II-080] | – | – | – | –
9 | 9.31 | COC[C@@H]1CC[C@H]2N(C(C)C)C(=O)c3c(O)c(=O)c(C(=O)NCc4c(F)cc(F)cc4F)cn3N12 [II-011] | – | – | – | –
10 | 9.19 | CCN1C(=O)c2c(O)c(=O)c(C(=O)NCc3c(F)cc(F)cc3F)cn2N2C[C@@H]3CCC[C@@H](C3)[C@@H]12 [II-016] | – | – | – | –
11 | 9.60 | CCN1C(=O)c2c(O)c(=O)c(C(=O)NCc3ccc(F)cc3F)cn2N2CC[C@H](C)[C@@H]12 [II-073] | – | – | – | –
12 | 8.68 | CCN1C(=O)c2c(O)c(=O)c(C(=O)NCc3ccc(F)cc3F)cn2N2Cc3ccccc3[C@@H]12 [Compound I-018] | – | – | – | –
13 | 8.36 | COC[C@H](C)N1C(=O)c2c(O)c(=O)c(C(=O)NCc3ccc(F)cc3F)cn2N2CCCC[C@@H]12 [Compound I-039] | – | – | – | –
14 | 9.26 | CCN1C(=O)c2c(O)c(=O)c(C(=O)NCc3ccc(F)cc3F)cn2N2[C@H](COC)CCC[C@@H]12 [II-150] | – | – | – | –
15 | 9.08 | CCN1C(=O)c2c(O)c(=O)c(C(=O)NCc3ccc(F)nc3F)cn2N2C[C@@H]3CC[C@@H](C3)[C@@H]12 [II-056] | – | – | – | –
16 | 8.42 | C[C@@H]1CCN2[C@@H](C1)N(C)C(=O)c1c(O)c(=O)c(C(=O)NCc3cccc(Cl)c3F)cn12 [II-036] | – | – | – | –
17 | 9.00 | COC[C@@H]1CC[C@H]2N(C(C)C)C(=O)c3c(O)c(=O)c(C(=O)NCc4ccc(F)cc4F)cn3N12 [II-010] | – | – | – | –
18 | 9.21 | CCN1C(=O)c2c(O)c(=O)c(C(=O)NCc3ccc(F)cc3F)cn2N2C[C@H](C)CC[C@@H]12 [II-052] | – | – | – | –
19 | 9.66 | CN1C(=O)c2c(O)c(=O)c(C(=O)NCc3ccc(F)c(Cl)c3F)cn2N2CCCC[C@@H]12 [II-033] | – | – | – | –
20 | 8.74 | CCN1C(=O)c2c(O)c(=O)c(C(=O)NCc3ccc(F)cc3F)cn2N2Cc3ccc(Cl)cc3[C@@H]12 [II-084] | – | – | – | –
21 | 8.49 | CCN1C(=O)c2c(O)c(=O)c(C(=O)NCc3ccnc(Cl)c3F)cn2N2CCCC[C@@H]12 [II-062] | – | – | – | –
22 | 9.14 | O=C(NCc1ccc(F)cc1F)c1cn2c(c(O)c1=O)C(=O)N(C1CC(F)(F)C1)[C@@H]1CCCCN12 [Compound I-051] | – | – | – | –
23 | 8.49 | CCN1C(=O)c2c(O)c(=O)c(C(=O)NCc3ccc(F)cc3F)cn2N2CCN(c3ccccc3)C[C@@H]12 [II-143] | – | – | – | –

Row | SMILES | pEC50 (HIV) | FC mutant strain 1 [1] | FC mutant strain 2 [2] | residual rate (Metabolic stability test; [3]) | residual rate (Metabolic stability test; [4])
24 | CCN1C(=O)c2c(O)c(=O)c(C(=O)NCc3c(F)cc(F)cc3F)cn2N2C[C@@H]3CC[C@@H](O3)[C@@H]12 [II-046] | 9.72 | 17 | 28 | 88.4 | –
25 | CN1C(=O)c2c(O)c(=O)c(C(=O)NCc3cccc(Cl)c3F)cn2N2C[C@@H]3CC[C@@H](O3)[C@@H]12 [II-066] | 9.77 | 25 | 15 | 97.7 | –
26 | CN1C(=O)c2c(O)c(=O)c(C(=O)NCc3cccc(Cl)c3F)cn2N2[C@H]3COC[C@H]3C[C@@H]12 [II-133] | 9.37 | 76 | 17 | – | 101
27 | CCN1C(=O)c2c(O)c(=O)c(C(=O)NCc3cccc(Cl)c3F)cn2N2[C@H]3COC[C@H]3C[C@@H]12 [II-060] | 9.57 | 22 | 16 | – | 61.6
28 | CCN1C(=O)c2c(O)c(=O)c(C(=O)NCc3ccc(F)cc3F)cn2N2[C@H]3COC[C@H]3C[C@@H]12 [II-136] | 9.19 | 78 | 110 | – | 77.2
29 | CCN1C(=O)c2c(O)c(=O)c(C(=O)NCc3ccc(F)cc3F)cn2N2C[C@@H]3CCC[C@@H](O3)[C@@H]12 [II-156] | 9.48 | 26 | 16 | 98.6 | –
30 | CCN1C(=O)c2c(O)c(=O)c(C(=O)NCc3ccc(F)cc3F)cn2N2CCCC[C@@]12C [Compound I-006] | 9.12 | 24 | 16 | 92.5 | –
31 | CCN1C(=O)c2c(O)c(=O)c(C(=O)NCc3ccc(F)nc3F)cn2N2C[C@@H]3CC[C@@H](O3)[C@@H]12 [II-157] | 8.66 | 36 | 25 | 105 | –
32 | CCN1C(=O)c2c(O)c(=O)c(C(=O)NCc3ccc(F)cc3)cn2N2CCCC[C@@H]12 [II-077] | 8.96 | 32 | 36 | 100 | –
33 | CN1C(=O)c2c(O)c(=O)c(C(=O)NCc3cccc(Cl)c3F)cn2N2CCCC[C@@]12C [II-099] | 9.48 | 44 | 26 | 88.6 | –
34 | CCN1C(=O)c2c(O)c(=O)c(C(=O)NCc3ccc(F)cc3F)cn2N2C[C@@H]3CC[C@@H](O3)[C@@H]12 [II-102] | 9.21 | 47 | 45 | 101 | –
35 | C[C@H]1CC[C@H]2N(C)C(=O)c3c(O)c(=O)c(C(=O)NCc4cccc(Cl)c4F)cn3N2C1 [II-024] | 8.85 | 7.3 | 7 | 84.1 | –
36 | CN1C(=O)c2c(O)c(=O)c(C(=O)NCc3cccc(Cl)c3F)cn2N2CCCC[C@@H]12 [II-022] | 9.13 | 6.8 | 7.7 | 101 | –
37 | CCN1C(=O)c2c(O)c(=O)c(C(=O)NCc3ccc(F)cc3F)cn2N2CC[C@@H](C)C[C@@H]12 [II-023] | 9.34 | 7 | 4.2 | 82.9 | –
38 | C[C@H]1CC[C@H]2N(C)C(=O)c3c(O)c(=O)c(C(=O)NCc4ccc(Cl)cc4F)cn3N2C1 [II-090] | 8.49 | 38 | 25 | 95.7 | –
39 | CC(C)N1C(=O)c2c(O)c(=O)c(C(=O)NCc3c(F)cc(F)cc3F)cn2N2[C@H]3COC[C@H]3C[C@@H]12 [II-048] | 9.26 | 17 | 34 | – | 73.3
40 | CC(C)N1C(=O)c2c(O)c(=O)c(C(=O)NCc3ccc(F)cc3F)cn2N2CCOC[C@@H]12 [II-026] | 9.74 | 8.1 | 14 | 87.5 | –
41 | CCN1C(=O)c2c(O)c(=O)c(C(=O)NCc3ccc(F)cc3F)cn2N2[C@@H]3CCC[C@@H]3CC[C@@H]12 [II-078] | 8.96 | – | – | – | –
